Where two headings read alike, the source gives them in different places.
Experiments:
[1] = Free plasma protein binding (PPB) assay, equilibrium dialysis; assay type: in vitro ADME; conditions: dialysis 6 hours at 37° C.
Experimental: The dried dialysis membrane was soaked in ultrapure water for 1 hour, then soaked in 20% ethanol for 20 minutes, and then rinsed with ultrapure water for 2 to 3 times. Finally, the dried dialysis membrane was soaked in ultrapure water for 20 minutes for later use. The frozen plasma was thawed in a water bath at 37° C. for about 20 minutes. pH value of the plasma was measured after thawing was complete, and was adjusted to 7.4 with 1% phosphoric acid solution or 0.1M sodium hydroxide solution. […] The pretreated dialysis membrane was assembled into the dialysis plate according to product instructions, and 100 μL of receiving solution (100 mM phosphate buffer solution plus 0.002% Tween 80) was added to one side of the permeable membrane in each dialysis well. 20 μL of each of the final solution of the test compound and the final solution of the control compound were taken in a 96-well sample plate, two duplicate samples were made, and T0 sample was obtained, which was stored in a −20° C. refrigerator. Another 100 μL of each of the above-mentioned final solutions were taken to the other side of the membrane in the dialysis device, two duplicate samples were made, and incubated at 37° C. with constant shaking for 6 hours. After 6 hours of incubation, 20 μL of each of the dialyzed receiving solution and the administered plasma were taken, two duplicate samples were made, and sample A and sample B were obtained. Corresponding blank plasma or receiving solution of corresponding volume were added to sample B and sample A, respectively, allowing the volume ratio of plasma to buffer in each sample well to be 1:1. 300 μL of sample-containing internal standard acetonitrile solution was added to all the sample wells. The mixture was mixed well, and centrifuged at 5,500×g for 10 minutes. 150 μL of corresponding ultrapure water was added to the corresponding sample wells of the 96-well sample plate. 150 μL of the supernatant was taken into the sample wells, and mixed well. Then, LC/MS/MS analysis was performed. The calculation formula of fu is: […]
where: CR: peak area ratio measured in the receiving chamber well CD: peak area ratio measured in the supply chamber well.

AT2R = AT2R (Homo sapiens (Human), UniProt P50052); assay: Binding assay of compounds to AT2R (Tag-lite HTRF ligand binding kit); conditions: 1 hour incubation at room temperature
Experimental: The assay was performed in accordance with the instruction manual of Angiotensin AT2 Receptor Ligand Binding Assay Kit (#C1TT1AT2, Cisbio). First, a compound stock solution (10 mM) was diluted in a gradient at a 5× dilution ratio (including 10 concentrations, each with two replicates). 160 nL of compounds at different concentrations was added to a 384-well plate. 40 μL of 1×TLB was added to each well, and the mixture was shaken at room temperature for 15 minutes. 15 mL centrifuge tube added with 5 mL of 1×TLB was prepared in advance. The frozen labeled cells were thawed in a water bath at 37° C. (for 1 to 2 minutes), and the thawed cells were quickly transferred to the above 15 mL centrifuge tube. The mixture was mixed well and centrifuged at 1,000 g at room temperature for 5 minutes. The supernatant was removed, and the cells were resuspended by adding 2.7 mL 1×TLB. A new 384-well plate was taken, and 10 μL of mixed cells were added into the corresponding wells according to the assay design. 5 μL of 4× compound solution and 5 μL of 4× Tag-lite red fluorescent labeled ligand were added to each well. After incubation at room temperature for 1 hour, data were read using EnVision with an HTRF mode. The excitation light intensities at 665 nM and 615 nM in each well were read respectively, and the ratio was calculated (Ratio=A665nMIB615 nM). The IC50 value was calculated by means of GraphPad Prism8 software, where X represents logarithmic value of compound concentration; and Y represents ratio of A665 nM/B615 nM.

Sequence of AT2R (P50052 whole entry): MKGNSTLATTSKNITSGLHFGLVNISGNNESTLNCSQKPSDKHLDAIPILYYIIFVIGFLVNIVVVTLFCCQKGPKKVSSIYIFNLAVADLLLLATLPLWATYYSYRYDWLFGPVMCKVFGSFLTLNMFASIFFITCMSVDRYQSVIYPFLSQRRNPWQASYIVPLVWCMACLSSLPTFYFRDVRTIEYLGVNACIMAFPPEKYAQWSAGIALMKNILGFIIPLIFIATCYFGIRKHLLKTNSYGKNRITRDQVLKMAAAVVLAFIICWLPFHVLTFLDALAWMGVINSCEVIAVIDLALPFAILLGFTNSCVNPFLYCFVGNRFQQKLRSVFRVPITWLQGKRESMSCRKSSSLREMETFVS

COC(=O)NS(=O)(=O)c1sc(CC(C)C)c(C)c1-c1ccc(Cn2ccnc2Cl)cc1 [Compound I-34, Methyl ((3-(4-((2-chloro-1H-imidazol-1-yl)methyl)phenyl)-5-isobutyl-4-methylthiophen-2-yl)sulfonyl)carbamate]
fraction unbound at 6 h, 1 μM ([1]; dog, pH 7.4, Canine plasma, read-out: fu % Canine): 0.0141
fraction unbound at 6 h, 1 μM ([1]; pH 7.4, Human plasma, read-out: fu % Human): 0.008
fraction unbound at 6 h, 1 μM ([1]; pH 7.4, Mouse plasma, read-out: fu % Mouse): 0.0093
fraction unbound at 6 h, 1 μM ([1]; pH 7.4, Rat plasma, read-out: fu % Rat): 0.0289
IC50 (AT2R): 4.32 nM

From patent US20250214978A1, “AT2R AGONIST” (WUHAN HUMANWELL INNOVATIVE DRUG RESEARCH AND DEVELOPMENT …, priority 2022, published 2025)
